# According to ChEMBL document CHEMBL6134858, “Structure-Based Discovery Targeting GSK-3α Reveals Potent Nanomolar Selective 4-Phenyl-1H-benzofuro[3,2-b]pyrazolo[4,3-e]pyridine Inhibitor with Promising Glioblastoma and CNS-Active Potential in Cellular Models” (J Med Chem, 2025):
# Active and inactive are the calls of the source. The rule behind the calls is not given here.
# Tests used:
# [1] = system: T98G; assay: Antiproliferative activity against human T98G cells assessed as reduction in cell viability incubated for 72 hrs by PrestoBlue cell viability assay
# [2] = system: U-251; assay: cells; conditions: Homo sapiens, U-251, 72 h
# Description: Antiproliferative activity against human U-251MG cells assessed as reduction in cell viability incubated for 72 hrs by PrestoBlue cell viability assay
# [3] = system: U-87 MG; assay: Antiproliferative activity against human U-87 MG cells assessed as reduction in cell viability incubated for 72 hrs by PrestoBlue cell viability assay
# [4] = system: U-87 MG; assay: Antiproliferative activity against human U-87 MG cells assessed as reduction in cell viability incubated for 24 to 72 hrs by PrestoBlue cell viability assay; format: functional, cell-based; conditions: U-87MG ATCC, time 24-72 hrs
# [5] = system: T98G; assay: Antiproliferative activity against human T98G cells assessed as reduction in cell viability incubated for 24 to 72 hrs by PrestoBlue cell viability assay; format: functional, cell-based; conditions: dose 0.3-300 µM, time 24-72 hrs
# [6] = system: T98G; assay: Antiproliferative activity against human T98G cells assessed as reduction in cell viability incubated for 24 hrs by PrestoBlue cell viability assay
# [7] = system: U-251; assay: cells; conditions: Homo sapiens, U-251, 24 h
# Description: Antiproliferative activity against human U-251MG cells assessed as reduction in cell viability incubated for 24 hrs by PrestoBlue cell viability assay
# [8] = system: U-251; assay: cells; conditions: Homo sapiens, U-251, 48 h
# Description: Antiproliferative activity against human U-251MG cells assessed as reduction in cell viability incubated for 48 hrs by PrestoBlue cell viability assay
# [9] = system: U-87 MG; assay: Antiproliferative activity against human U-87 MG cells assessed as reduction in cell viability incubated for 48 hrs by PrestoBlue cell viability assay
# [10] = system: U-87 MG; assay: Antiproliferative activity against human U-87 MG cells assessed as reduction in cell viability incubated for 24 hrs by PrestoBlue cell viability assay
# [11] = system: T98G; assay: Antiproliferative activity against human T98G cells assessed as reduction in cell viability incubated for 48 hrs by PrestoBlue cell viability assay
# [12] = system: U-251; assay: Antiproliferative activity against human U-251MG cells assessed as reduction in cell viability incubated for 24 to 72 hrs by PrestoBlue cell viability assay; format: functional, cell-based; conditions: dose 0.3-300 µM, time 24-72 hrs
# [13] = system: U-251; assay: Induction of cell cycle arrest in human U-251MG cells assessed as accumulation of cell at S phase at IC50 concentration incubated for 72 hrs by propidium iodide/RNase staining based flow cytometry relative to control; format: functional
# [14] = molecular target: Mitogen-activated protein kinase 1 (Homo sapiens) (UniProt P28482); assay: Inhibition of ERK2 (unknown origin) assessed as residual activity at 10 uM relative to control
# Sequence of Mitogen-activated protein kinase 1 (Homo sapiens) (P28482 whole entry): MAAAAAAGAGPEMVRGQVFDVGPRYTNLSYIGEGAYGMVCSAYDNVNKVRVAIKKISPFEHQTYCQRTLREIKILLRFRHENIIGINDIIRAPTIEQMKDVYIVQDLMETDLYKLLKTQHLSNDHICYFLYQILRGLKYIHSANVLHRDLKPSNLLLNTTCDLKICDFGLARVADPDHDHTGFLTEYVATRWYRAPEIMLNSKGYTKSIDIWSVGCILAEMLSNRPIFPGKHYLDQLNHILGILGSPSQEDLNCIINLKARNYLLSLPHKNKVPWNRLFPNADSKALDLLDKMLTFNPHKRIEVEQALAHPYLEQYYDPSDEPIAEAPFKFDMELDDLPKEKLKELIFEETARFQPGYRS
# [15] = Metabolic stability in human liver microsomes assessed as half life at 10 uM incubated up to 60 mins by HPLC-MS analysis; format: ADME, Microsome
# [16] = system: T98G; assay: Antiproliferative activity against human T98G cells assessed as reduction in cell viability at IC50 concentrations incubated for 72 hrs by PrestoBlue cell viability assay relative to control; format: functional
# [17] = molecular target: Mitogen-activated protein kinase 3 (Homo sapiens) (UniProt P27361); assay: Inhibition of ERK1 (unknown origin) assessed as residual activity at 10 uM relative to control
# Sequence of Mitogen-activated protein kinase 3 (Homo sapiens) (P27361 whole entry): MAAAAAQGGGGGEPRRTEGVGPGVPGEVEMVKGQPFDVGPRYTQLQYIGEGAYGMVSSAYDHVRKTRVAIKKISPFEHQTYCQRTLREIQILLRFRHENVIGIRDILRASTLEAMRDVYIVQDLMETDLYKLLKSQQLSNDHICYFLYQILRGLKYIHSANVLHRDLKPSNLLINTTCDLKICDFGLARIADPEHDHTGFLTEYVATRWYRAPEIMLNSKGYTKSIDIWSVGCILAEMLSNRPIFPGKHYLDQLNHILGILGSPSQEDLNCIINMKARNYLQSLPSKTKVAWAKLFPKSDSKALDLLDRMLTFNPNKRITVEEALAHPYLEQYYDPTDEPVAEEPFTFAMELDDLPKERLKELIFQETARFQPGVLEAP
# [18] = system: T98G; assay: Induction of cell cycle arrest in human T98G cells assessed as accumulation of cell at S phase at IC50 concentration incubated for 72 hrs by propidium iodide/RNase staining based flow cytometry relative to control; format: functional
# [19] = system: U-87 MG; assay: Induction of cell cycle arrest in human U-87 MG cells assessed as accumulation of cell at G1 phase at IC50 concentration incubated for 72 hrs by propidium iodide/RNase staining based flow cytometry (reference value: 55.0 %); format: functional, U-87MG ATCC
# [20] = Cytotoxicity against human Astrocyte at 100 uM incubated for 72 hrs by PrestoBlue cell viability assay; format: toxicity, cell-based
# [21] = molecular target: Protein kinase C alpha type (Homo sapiens) (UniProt P17252); assay: Inhibition of PKCalpha (unknown origin) assessed as residual activity at 10 uM relative to control
# [22] = system: U-87 MG; assay: Induction of cell cycle arrest in human U-87 MG cells assessed as accumulation of cell at sub-G1 phase at IC50 concentration incubated for 72 hrs by propidium iodide/RNase staining based flow cytometry relative to control; format: functional; conditions: U-87MG ATCC
# [23] = molecular target: Cyclin-dependent kinase 2 (Homo sapiens) (UniProt P24941); assay: Inhibition of CDK2 (unknown origin) assessed as residual activity at 10 uM relative to control
# [24] = species on record: Homo sapiens; assay: Inhibition of PKA (unknown origin) assessed as residual activity at 10 uM relative to control
# [25] = molecular target: RAC-beta serine/threonine-protein kinase (Homo sapiens) (UniProt P31751); assay: Inhibition of PKBbeta (unknown origin) assessed as residual activity at 10 uM relative to control
# Sequence of RAC-beta serine/threonine-protein kinase (Homo sapiens) (P31751 whole entry): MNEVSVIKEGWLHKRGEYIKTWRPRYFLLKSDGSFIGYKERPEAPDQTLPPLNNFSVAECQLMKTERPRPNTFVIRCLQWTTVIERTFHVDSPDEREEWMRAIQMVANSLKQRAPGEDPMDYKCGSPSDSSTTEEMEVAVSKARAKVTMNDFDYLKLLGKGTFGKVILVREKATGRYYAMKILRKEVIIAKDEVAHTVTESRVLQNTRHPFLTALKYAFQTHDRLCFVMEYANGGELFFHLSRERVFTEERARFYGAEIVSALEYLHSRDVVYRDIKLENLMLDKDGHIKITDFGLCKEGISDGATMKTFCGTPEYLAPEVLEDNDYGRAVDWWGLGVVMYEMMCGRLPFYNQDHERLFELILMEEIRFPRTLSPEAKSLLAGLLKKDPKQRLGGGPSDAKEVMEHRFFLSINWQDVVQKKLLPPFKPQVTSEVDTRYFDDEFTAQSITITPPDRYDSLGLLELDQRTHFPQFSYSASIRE
# [26] = molecular target: Protein kinase C gamma type (Homo sapiens) (UniProt P05129); assay: Inhibition of PKCgamma (unknown origin) assessed as residual activity at 10 uM relative to control
# [27] = molecular target: Cyclin-dependent kinase 9 (Homo sapiens) (UniProt P50750); assay: Inhibition of CDK9 (unknown origin) assessed as residual activity at 10 uM relative to control
# Sequence of Cyclin-dependent kinase 9 (Homo sapiens) (P50750 whole entry): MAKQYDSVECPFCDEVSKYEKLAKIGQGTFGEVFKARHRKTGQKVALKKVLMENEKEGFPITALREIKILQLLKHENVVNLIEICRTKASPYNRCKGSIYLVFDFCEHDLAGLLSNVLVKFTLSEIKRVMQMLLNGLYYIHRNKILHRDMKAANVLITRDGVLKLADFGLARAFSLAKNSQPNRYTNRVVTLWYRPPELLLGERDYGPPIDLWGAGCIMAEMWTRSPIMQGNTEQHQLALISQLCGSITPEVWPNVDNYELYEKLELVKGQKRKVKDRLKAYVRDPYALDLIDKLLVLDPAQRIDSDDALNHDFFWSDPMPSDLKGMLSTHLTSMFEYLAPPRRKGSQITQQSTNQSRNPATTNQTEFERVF
# [28] = system: U-251; assay: Induction of cell cycle arrest in human U-251MG cells assessed as accumulation of cell at G1 phase at IC50 concentration incubated for 72 hrs by propidium iodide/RNase staining based flow cytometry (reference value: 74.8 %); format: functional
# [29] = molecular target: Cyclin-dependent kinase 5 (Homo sapiens) (UniProt Q00535); assay: Inhibition of CDK5 (unknown origin) assessed as residual activity at 10 uM relative to control
# Sequence of Cyclin-dependent kinase 5 (Homo sapiens) (Q00535 whole entry, looked up): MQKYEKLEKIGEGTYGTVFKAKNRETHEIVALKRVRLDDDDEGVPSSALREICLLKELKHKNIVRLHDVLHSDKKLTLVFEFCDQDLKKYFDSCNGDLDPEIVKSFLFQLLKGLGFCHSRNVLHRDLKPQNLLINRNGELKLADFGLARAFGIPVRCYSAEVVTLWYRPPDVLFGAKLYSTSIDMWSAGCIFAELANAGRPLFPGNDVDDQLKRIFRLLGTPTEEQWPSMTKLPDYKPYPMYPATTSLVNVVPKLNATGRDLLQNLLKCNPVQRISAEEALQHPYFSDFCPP
# [30] = system: T98G; assay: Antiproliferative activity against human T98G cells assessed as reduction in cell viability at IC50 concentrations incubated for 72 hrs in presence of in BBB model (cocultured with HA, HBVP and HBMEC cells) by PrestoBlue cell viability assay relative to control; format: functional
# [31] = system: T98G; assay: Induction of cell cycle arrest in human T98G cells assessed as accumulation of cell at G1 phase at IC50 concentration incubated for 72 hrs by propidium iodide/RNase staining based flow cytometry (reference value: 73.3 %); format: functional
# [32] = Metabolic stability in human liver microsomes assessed as intrinsic clearance at 10 uM incubated up to 60 mins by HPLC-MS analysis; format: ADME, Microsome; conditions: 1 h
# [33] = system: U-87 MG; assay: Induction of cell cycle arrest in human U-87 MG cells assessed as accumulation of cell at S phase at IC50 concentration incubated for 72 hrs by propidium iodide/RNase staining based flow cytometry relative to control; format: functional, U-87MG ATCC
# [34] = Inhibition of PKA (unknown origin); parameters: species or system Homo sapiens
# [35] = species on record: Homo sapiens; assay: Inhibition of PKA (unknown origin) at 10 uM
# [36] = Cytotoxicity against human Astrocyte at 10 to 100 uM incubated for 72 hrs by PrestoBlue cell viability assay; format: toxicity, cell-based; conditions: dose 10-100 µM
# [37] = molecular target: RAC-alpha serine/threonine-protein kinase (Homo sapiens) (UniProt P31749); assay: Inhibition of PKBalpha (unknown origin) assessed as residual activity at 10 uM relative to control
# Sequence of RAC-alpha serine/threonine-protein kinase (Homo sapiens) (P31749 whole entry): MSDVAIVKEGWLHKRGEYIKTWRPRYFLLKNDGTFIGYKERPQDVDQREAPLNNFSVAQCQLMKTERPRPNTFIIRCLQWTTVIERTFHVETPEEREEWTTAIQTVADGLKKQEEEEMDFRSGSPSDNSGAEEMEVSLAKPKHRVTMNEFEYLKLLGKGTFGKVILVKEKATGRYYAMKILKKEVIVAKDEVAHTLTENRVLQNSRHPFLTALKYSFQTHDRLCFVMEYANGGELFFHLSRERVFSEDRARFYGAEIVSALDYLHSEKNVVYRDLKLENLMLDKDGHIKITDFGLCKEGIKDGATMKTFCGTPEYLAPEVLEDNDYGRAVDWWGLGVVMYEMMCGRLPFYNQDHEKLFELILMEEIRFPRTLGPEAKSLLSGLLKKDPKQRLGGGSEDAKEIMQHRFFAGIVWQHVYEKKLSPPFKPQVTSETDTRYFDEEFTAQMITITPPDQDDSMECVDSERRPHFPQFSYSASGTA
smiles,measurement,setting,value
Cn1sc(=O)n(Cc2ccccc2)c1=O,IC50,[1],41.4 µM
same,IC50,[2],15.7 µM
same,IC50,[3],23.6 µM
same,Activity,[4],Dose-dependent-effect
same,Activity,[5],Dose-dependent-effect
same,IC50,[6],65.9 µM
same,IC50,[7],51 µM
same,IC50,[8],24.9 µM
same,IC50,[9],28.2 µM
same,IC50,[10],36.8 µM
same,IC50,[11],54.4 µM
same,Activity,[12],Dose-dependent-effect
CC(C)c1ccc(-c2c3cn[nH]c3nc3c2oc2cc(O)ccc23)cc1,Activity,[13],15.9%
same,Activity,[14],> 50%
same,half-life at 10 µM,[15],1.68 h
same,Activity,[16],61%
same,IC50,[1],6.2 µM
same,Activity,[17],> 50%
same,Activity,[18],22.3%
same,Activity,[19],45.5%
same,IC50,[2],6.1 µM
same,Activity,[20],Non-toxic
same,Activity,[21],> 50%
same,Activity,[22],Active
same,Activity,[23],> 50%
same,IC50,[3],3.3 µM
same,Activity,[4],Dose-dependent-effect
same,Activity,[24],> 50%
same,Activity,[25],> 50%
same,Activity,[26],> 50%
same,Activity,[27],> 50%
same,Activity,[28],61.6%
same,Activity,[5],Dose-dependent-effect
same,IC50,[6],12 µM
same,Activity,[29],> 50%
same,Activity,[30],78%
same,IC50,[7],15.1 µM
same,IC50,[8],8.3 µM
same,Activity,[31],65.8%
same,CLH,[32],5.6 µL/min/mg
same,IC50,[9],4.7 µM
same,IC50,[10],15 µM
same,Activity,[33],27.8%
same,IC50,[11],8.1 µM
same,IC50,[34],0.188 µM
same,inhibition,[35],Active
same,Activity,[12],Dose-dependent-effect
same,Activity,[36],Non-toxic
same,Activity,[37],> 50%
